Results taken from patent US10501493B2, “Broad spectrum antibiotics” (priority 2011, dated 2019).
Converted amounts (≈) assume the structure as drawn.

How the values were obtained:
S. pneumoniae D39 = assay: In vitro antimicrobial activity, MIC by broth micro-dilution; assay type: cell-based; settings: Streptococcus pneumoniae, D39; read-out: MIC class, S. pneumoniae D39
Method: (§1) In vitro antimicrobial activity of each compound was determined by measuring minimal inhibitor concentrations (MICs) using the broth micro-dilution technique as approved by the Clinical and Laboratory Standards Institute (CLSI). The microbiological panel examined contains a number of bacterial species including E. coli MG1655, P. aeruginosa, S. aureus, and S. epidermidis. In addition, the panel includes previously described pseudo-isogenic strains of these four species (P. A. Smith et al. Chem Biol 2010, 1223-1231), in which a specific proline residue in SPase (called LepB in Gram-negative organisms an SpsB in Gram-positive organisms) has been mutated to a different amino acid. The resulting strains have increased susceptibility to the arylomycin class of antibiotics. Analysis of the strains lacking this proline residue will increases the dynamic range of the assay, and comparison of the sensitivities of the isogenic pairs provides ongoing confirmation that the activity gained through derivatization is specific to the inhibition of SPase. Briefly, bacterial streaks were grown on Mueller Hinton Agar II (Difco™) with or without 5% lysed horse blood for a period of 24 hours at either 35° C. or 28° C. Bacterial colonies were suspended in cation adjusted Mueller Hinton broth and diluted to a final concentration of 1*10^7 colony forming units/ml. Two-fold serial dilutions of each compound were arrayed into 96-well plates (100 μl final volume per well) and 5 ul of the bacterial suspension will be added. […] MICs were periodically checked plating serial dilutions of MIC wells and quantitatively determining viable colonies.

[1] = tested on: S. aureus NCTC-8325 SpsB(P295); assay: as above; assay type: cell-based; settings: Staphylococcus aureus, NCTC8325, read-out: MIC class, S. aureus NCTC-8325 SpsB(P295)
Method: as §1

S. epidermidis RP62A = assay: as above; assay type: cell-based; settings: Staphylococcus epidermidis, RP62A; read-out: MIC class, S. epidermidis RP62A
Method: as §1

E. coli ATCC 25922 = assay: as above; assay type: cell-based; settings: Escherichia coli, ATCC25922; read-out: MIC class, E. coli ATCC 25922
Method: as §1

[2] = tested on: E. col ATCC 25922 LepB(P84L); assay: as above; assay type: cell-based, E. coli; settings: Escherichia coli, ATCC25922, read-out: MIC class, E. col ATCC 25922 LepB(P84L)
Method: as §1

E. coli SPase = target: T1, E. coli SPase (Escherichia coli, UniProt P00803); assay: Enzymatic fluorogenic substrate cleavage assay for IC50; assay type: biochemical
T1 construct: Full length His-tagged E. coli SPase proteins were expressed in E. coli BL21(DE3); His-tag; made in house; host or cells: E. coli BL21(DE3)
Method: (§2) Full length His-tagged E. coli SPase proteins were expressed in E. coli BL21(DE3) containing the plasmid pET23-lepB, P. A. Smith et al. Chem Biol 2010, 1223-1231. Briefly, saturated overnight cultures grown in 20 ml of Luria-Bertani medium supplemented with ampicillin were subcultures into 1.5 L of Luria-Bertani, and shaken at 37° C. until an optical density at 600 nm of 0.4-0.5 was achieved. Protein expression was induced with Isopropyl β-D-1-thiogalactopyranoside (ITPG) at a final concentration of […], and purified using nickel affinity chromatography. Full length His-tagged S. aureus SPase protein was expressed similarly from E. coli BL21(DE3) containing the plasmid pCDF1-SaSpsB or pCDF1-SaSpsB(P29S) and purified similarly to the E. coli protein with the following exceptions. SPase protein was solubilized using 300 mM NaCl, 20 mM Tris pH 8.06, 5 mM Imidazole, 10% glycerol, 1% Triton X-100, prior to purification in Ni-NTA Superflow resin and resin bound protein was washed in a similar buffer containing 1% Elugent in place of Triton X-100 prior to protein eluted in wash buffer supplemented with 300 mM imidazole. Protein purify was judged to exceed 95% by visual inspection of SDS-PAGE followed by Comassie staining. All protein concentrations were determined by BCA assay.
(§3) In addition to the equilibrium binding assays, compound activity is also characterized by measuring inhibition of E. coli and S. aureus substrate cleavage reactions using fluorogenic peptides developed at RQx Pharmaceuticals. Briefly, two fluorogenic peptide substrates (decanoyl-LSSPA Y^NO2 A ? ADK^abzPD (SEQ ID NO: 1) and decanyol-LTPTAY^NO2 A ? ASKK^abzDD (SEQ ID NO: 2)) have been synthesized, where abz is the fluorescence donor 2-aminobenzamide, YNO2 is the fluorescence acceptor 3-nitrotyrosine, and the cleavage site is indicated with an arrow. These substrates are processed with a second order rate constant (Kcat/KM) of 10^5 M^−1s^−1 for E. coli and S. aureus SPase enzymes, and cleavage results in a greater than 10-fold increase in fluorescence signal (excitation at 314 nm, emission at 416 nm) as measured using a SpectraMax M2 fluorescence microplate reader. Two-folder serial dilutions of compound are prepared in cleavage reaction buffer consisting of: 50 mM Tris-HCl pH 8.0, 100 mM NaCl, 10% glycerol, 1 mM EDTA, detergent (1% NP-40 or 0.1% Elugent™ for E. coli LepB or S. aureus SpsB respectively) and either 2.5 nM of E. coli SPase enzyme or 10 nM of S. aureus SPase enzyme. 40 μl aliquots of the compound dilution series in the protein/buffer solution is transferred to black 384-well polypropylene plates, and 10 μl of fluorogenic peptide at a concentration of 100 μM is added to initiate the reaction. The increase in fluorescence, corresponding to substrate cleavage, is monitored continuously at room temperature for 30 minutes and initial reaction rates are calculated based in the linear increase in fluorescence from the initial 30 minutes of the reaction. Reaction rates are plotted as a function of compound concentration, and IC50 values are determined nonlinear regression analysis (SoftMax® Pro v5.4) of the sigmoidal dose-response curve.

S. aureus SPase = target: T2, S. aureus SPase (Staphylococcus aureus, UniProt P0A070); assay: as above; assay type: biochemical
T2 construct: Full length His-tagged S. aureus SPase protein was expressed similarly; His-tag; made in house; host or cells: E. coli BL21(DE3)
Method: as §2, §3

S. aurues NCTC-8325 = assay: In vitro antimicrobial activity, MIC by broth micro-dilution; assay type: cell-based, S. aureus; settings: Staphylococcus aureus, NCTC8325, read-out: MIC class, S. aurues NCTC-8325
Method: as §1

| Structure (SMILES) | MIC (S. pneumoniae D39) [µg/mL] | MIC [1] [µg/mL] | MIC (S. epidermidis RP62A) [µg/mL] | MIC (E. coli ATCC 25922) [µg/mL] | MIC [2] [µg/mL] | IC50 (E. coli SPase) [µM] | IC50 (S. aureus SPase) [µM] | MIC (S. aurues NCTC-8325) [µg/mL] |
| --- | --- | --- | --- | --- | --- | --- | --- | --- |
| CCCCCCCCCCCCCCCC(=O)N(C)[C@H](CO)C(=O)N[C@H](C)C(=O)NCC(=O)N(C)[C@@H]1C(=O)N[C@@H](C)C(=O)N[C@H](C(=O)N[C@@H](CO)C(C)C)Cc2ccc(O)c(c2)-c2cc1ccc2O [Compound 66] | 16 to 64 (≈ 16.6 to 66.2 µM) | > 64 | 16 to 64 (≈ 16.6 to 66.2 µM) | > 64 | 16 to 64 (≈ 16.6 to 66.2 µM) | 1 to 10 | > 10 | > 64 |
| CCCCCCCCCCCCCCCC(=O)N(C)[C@H](CO)C(=O)N[C@H](C)C(=O)NCC(=O)N(C)[C@@H]1C(=O)N[C@@H](C)C(=O)N[C@H](C(=O)N[C@H](CO)Cc2cnc[nH]2)Cc2ccc(O)c(c2)-c2cc1ccc2O [Compound 71] | 16 to 64 (≈ 15.9 to 63.7 µM) | > 64 | > 64 | > 64 | > 64 | > 10 | > 10 | > 64 |
| CCCCCCCCCCCCCCCC(=O)N(C)[C@H](CO)C(=O)N[C@H](C)C(=O)NCC(=O)N(C)[C@@H]1C(=O)N[C@@H](C)C(=O)N[C@H](C(=O)NC(CO)(CO)CO)Cc2ccc(O)c(c2)-c2cc1ccc2O [Compound 70] | 16 to 64 (≈ 16.3 to 65 µM) | > 64 | < 8 | > 64 | < 8 | < 1 | > 10 | > 64 |
| CCCCCCCCCCCCCCCC(=O)N(C)[C@H](CO)C(=O)N[C@H](C)C(=O)NCC(=O)N(C)[C@@H]1C(=O)N[C@@H](C)C(=O)N[C@H](C(=O)N[C@H](CO)C(C)O)Cc2ccc(O)c(c2)-c2cc1ccc2O (stereo partly shown) [Compound 68] | 16 to 64 (≈ 16.5 to 66.1 µM) | > 64 | 16 to 64 (≈ 16.5 to 66.1 µM) | > 64 | 16 to 64 (≈ 16.5 to 66.1 µM) | 1 to 10 | > 10 | > 64 |
| CCCCCCCCCCCCCCCC(=O)N(C)[C@H](CO)C(=O)N[C@H](C)C(=O)NCC(=O)N(C)[C@@H]1C(=O)N[C@@H](C)C(=O)N[C@H](C(=O)NC(CO)CO)Cc2ccc(O)c(c2)-c2cc1ccc2O [Compound 67] | 16 to 64 (≈ 16.8 to 67.1 µM) | > 64 | 16 to 64 (≈ 16.8 to 67.1 µM) | > 64 | 16 to 64 (≈ 16.8 to 67.1 µM) | > 10 | > 10 | > 64 |
| CCCCCCCCCCCCCCCC(=O)N(C)C(CO)C(=O)N[C@H](C)C(=O)NCC(=O)N(C)[C@@H]1C(=O)N[C@@H](C)C(=O)NC(C(=O)NCC(O)C(N)=O)Cc2ccc(O)c(c2)-c2cc1ccc2O (stereo partly shown) [Compound 82] | 16 to 64 (≈ 16.5 to 66.2 µM) | > 64 | > 64 | > 64 | > 64 | 1 to 10 | > 10 | > 64 |
| CCCCCCCCCCCCCCCC(=O)N(C)[C@H](CO)C(=O)N[C@H](C)C(=O)NCC(=O)N(C)[C@@H]1C(=O)N[C@@H](C)C(=O)N[C@H](C(=O)N[C@H](C)CO)Cc2ccc(O)c(c2)-c2cc1ccc2O [Compound 63] | 16 to 64 (≈ 17.1 to 68.2 µM) | > 64 | 16 to 64 (≈ 17.1 to 68.2 µM) | > 64 | > 64 | > 10 | > 10 | > 64 |
| CCCCCCCCCCCCCCCC(=O)N(C)[C@H](CO)C(=O)N[C@H](C)C(=O)NCC(=O)N(C)[C@@H]1C(=O)N[C@@H](C)C(=O)N[C@H](C(=O)N[C@H](CO)Cc2c[nH]c3ccccc23)Cc2ccc(O)c(c2)-c2cc1ccc2O [Compound 74] | 16 to 64 (≈ 15.2 to 60.8 µM) | > 64 | > 64 | > 64 | > 64 | 1 to 10 | > 10 | > 64 |
| CCCCCCCCCCCCCCCC(=O)N(C)[C@H](CO)C(=O)N[C@H](C)C(=O)N[C@@H](C)C(=O)N(C)[C@@H]1C(=O)N[C@@H](C)C(=O)N[C@H](C(=O)O)Cc2ccc(O)c(c2)-c2cc1ccc2O [Compound 91] | < 8 | > 64 | < 8 | > 64 | > 64 | < 1 | < 1 | > 64 |
| CCCCCCCCCCCCCCCC(=O)N(C)C(CO)C(=O)N[C@H](C)C(=O)NCC(=O)N(C)[C@@H]1C(=O)N[C@@H](C)C(=O)NC(C(=O)NCC(O)CO)Cc2ccc(O)c(c2)-c2cc1ccc2O (stereo partly shown) [Compound 62] | 16 to 64 (≈ 16.8 to 67.1 µM) | > 64 | > 64 | > 64 | 16 to 64 (≈ 16.8 to 67.1 µM) | 1 to 10 | > 10 | > 64 |
| CCCCCCCCCCCCC(=O)N(C)[C@H](CO)C(=O)N[C@H](C)C(=O)NCC(=O)N(C)[C@@H]1C(=O)N[C@@H](C)C(=O)N[C@H](C(=O)O)Cc2ccc(O)c(c2)-c2cc1ccc2O [Compound 86] | 16 to 64 (≈ 19.1 to 76.3 µM) | < 8 | 16 to 64 (≈ 19.1 to 76.3 µM) | > 64 | < 8 | < 1 | < 1 | > 64 |
